{"source": "ChEMBL document CHEMBL3792292", "about": "“Development of a potent and selective FLT3 kinase inhibitor by systematic expansion of a non-selective fragment-screening hit” (Bioorg Med Chem Lett, 2016)", "data": [{"target": "T1, Receptor-type tyrosine-protein kinase FLT3 (Homo sapiens, UniProt P36888)", "T1 sequence (P36888 whole entry)": "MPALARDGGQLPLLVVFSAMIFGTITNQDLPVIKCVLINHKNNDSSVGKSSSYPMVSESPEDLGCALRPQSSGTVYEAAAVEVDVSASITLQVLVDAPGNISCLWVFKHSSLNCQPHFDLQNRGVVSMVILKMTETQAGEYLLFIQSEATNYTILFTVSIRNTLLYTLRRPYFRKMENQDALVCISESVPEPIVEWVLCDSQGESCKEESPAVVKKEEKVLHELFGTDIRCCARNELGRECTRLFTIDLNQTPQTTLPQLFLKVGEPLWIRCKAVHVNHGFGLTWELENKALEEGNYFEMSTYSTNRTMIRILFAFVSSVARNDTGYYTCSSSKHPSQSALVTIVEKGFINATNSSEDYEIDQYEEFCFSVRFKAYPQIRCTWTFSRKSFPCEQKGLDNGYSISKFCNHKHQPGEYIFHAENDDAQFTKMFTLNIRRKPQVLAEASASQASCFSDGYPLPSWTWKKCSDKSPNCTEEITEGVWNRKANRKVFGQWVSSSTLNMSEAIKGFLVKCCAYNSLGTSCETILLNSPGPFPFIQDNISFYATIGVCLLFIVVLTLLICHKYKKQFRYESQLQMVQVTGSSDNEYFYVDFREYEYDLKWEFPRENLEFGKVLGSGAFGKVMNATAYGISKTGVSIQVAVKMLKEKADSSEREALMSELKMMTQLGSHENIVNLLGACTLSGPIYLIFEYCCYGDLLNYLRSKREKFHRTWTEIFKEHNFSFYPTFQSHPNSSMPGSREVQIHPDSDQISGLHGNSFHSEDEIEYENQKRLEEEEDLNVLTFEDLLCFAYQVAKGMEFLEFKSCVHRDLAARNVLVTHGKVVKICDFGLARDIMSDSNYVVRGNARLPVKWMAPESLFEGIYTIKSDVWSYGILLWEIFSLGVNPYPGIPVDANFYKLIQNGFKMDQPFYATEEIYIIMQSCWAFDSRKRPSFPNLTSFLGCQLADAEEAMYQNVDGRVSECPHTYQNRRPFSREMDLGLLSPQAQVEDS", "assay": "Inhibition of human N-terminal GST-tagged FLT3 cytoplasmic domain (564 to 993 residues) expressed in baculovirus expression system using 5-FAM-peptide 2 as substrate after 2 hrs by electrophoretic mobility shift assay in presence of ATP", "units": {"IC50": "nM"}, "values": [{"compound": "COC(=O)c1cccc(NC(=O)c2n[nH]c3ccccc23)c1", "IC50": "> 2000"}, {"compound": "COc1ccc(NC(=O)c2n[nH]c3ccccc23)cc1", "IC50": 352}, {"compound": "COC(=O)c1ccccc1NC(=O)c1n[nH]c2ccccc12", "IC50": "> 2000"}, {"compound": "O=C(Nc1ccccc1)c1c[nH]c2ccccc12", "IC50": "> 2000"}, {"compound": "CN(C(=O)c1n[nH]c2ccccc12)c1ccccc1", "IC50": "> 2000"}, {"compound": "O=C(Nc1ccc(N2CCN(c3ccccc3)CC2)cc1)c1n[nH]c2ccccc12", "IC50": "> 2000"}, {"compound": "COc1ccccc1NC(=O)c1n[nH]c2ccccc12", "IC50": "> 2000"}, {"compound": "Cc1ccccc1NC(=O)c1n[nH]c2ccccc12", "IC50": "> 2000"}, {"compound": "Cn1nc(C(=O)Nc2ccccc2)c2ccccc21", "IC50": "> 2000"}]}]}
